# Test results published in US8691804B2 (Evotec AG, priority 2008, dated 2014).
# pIC50: −log10 of the molar value.
# Biological target: T1, human H3 receptors (Homo sapiens, UniProt Q9Y5N1)
# T1 construct: host or cells: CHO-K1
# Assay: cAMP quantification assay for human H3 receptor testing
# Assay type: cell-based
# Settings: CHO-K1 cells expressing human H3 receptors; inhibition of agonist-induced decrease of cAMP; 100 nM histamine, 10 μM forskolin; read-out: Potency range (IC50 values)
# Summary of the method: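 CHO-K1 cells expressing human H3 (10,000/well) were preincubated 30 min at 37 °C with compound in PBS containing 1 mM IBMX and 0.03% BSA. They were then challenged 30 min with agonist solution (100 nM histamine plus 10 μM forskolin). cAMP was quantified by enzyme-complementation luminescence, with 8 concentrations in triplicate at 1% DMSO.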
# T1 sequence (Q9Y5N1 whole entry): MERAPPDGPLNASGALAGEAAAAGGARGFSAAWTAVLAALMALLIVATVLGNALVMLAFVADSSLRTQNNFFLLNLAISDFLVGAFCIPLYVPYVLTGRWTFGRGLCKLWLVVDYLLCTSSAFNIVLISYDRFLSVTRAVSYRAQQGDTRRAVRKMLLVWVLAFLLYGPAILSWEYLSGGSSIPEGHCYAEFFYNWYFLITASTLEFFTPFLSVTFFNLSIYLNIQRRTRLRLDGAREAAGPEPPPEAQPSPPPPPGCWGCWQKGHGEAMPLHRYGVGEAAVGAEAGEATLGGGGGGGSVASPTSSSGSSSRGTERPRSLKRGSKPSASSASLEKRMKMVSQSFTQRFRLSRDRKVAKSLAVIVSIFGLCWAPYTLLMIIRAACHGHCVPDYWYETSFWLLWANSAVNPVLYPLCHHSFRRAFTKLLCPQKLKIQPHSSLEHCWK
row,Compound,pIC50
1,"N#Cc1ccc(COC2CN(C(=O)N3CCCN(C4CCC4)CC3)C2)cc1 [Example 98, 4-[({1-[(4-cyclobutyl-1,4-diazepan-1-yl)carbonyl]azetidin-3-yl}oxy)methyl]benzonitrile]",> 7.00
2,"C#CCOC1CN(C(=O)N2CCCN(C3CCC3)CC2)C1 [Example 99, 1-cyclobutyl-4-{[3-(prop-2-yn-1-yloxy)azetidin-1-yl]carbonyl}-1,4-diazepane]",> 7.00
3,"O=C1CC(C(=O)N2CCCN(C3CCC3)CC2)C1 [Example 100, 3-[(4-cyclobutyl-1,4-diazepan-1-yl)carbonyl]cyclobutanone]",> 7.00
4,"O=C([C@H]1C[C@@H](O)C1)N1CCCN(C2CCC2)CC1 [Example 101, cis-3-[(4-cyclobutyl-1,4-diazepan-1-yl)carbonyl]cyclobutanol]",6.30 to 7.00
5,"CNC(=O)c1ccc(O[C@H]2C[C@@H](C(=O)N3CCCN(C4CCC4)CC3)C2)nc1 [Example 102, 6-({cis-3-[(4-cyclobutyl-1,4-diazepan-1-yl)carbonyl]cyclobutyl}oxy)-N-methylpyridine-3-carboxamide]",> 7.00
6,"N#Cc1ccc(O[C@H]2C[C@@H](C(=O)N3CCCN(C4CCC4)CC3)C2)cc1 [Example 103, 4-({cis-3-[(4-cyclobutyl-1,4-diazepan-1-yl)carbonyl]cyclobutyl}oxy)benzonitrile]",> 7.00
7,"O=C([C@H]1C[C@@H](Oc2ccc(C(F)(F)F)cn2)C1)N1CCCN(C2CCC2)CC1 [Example 104, 1-cyclobutyl-4-[(cis-3-{[5-(trifluoromethyl)pyridin-2-yl]oxy}cyclobutyl)carbonyl]-1,4-diazepane]",> 7.00
8,"O=C([C@H]1C[C@H](O)C1)N1CCCN(C2CCC2)CC1 [Example 105, trans-3-[(4-cyclobutyl-1,4-diazepan-1-yl)carbonyl]cyclobutanol]",> 7.00
9,"N#Cc1ccc(O[C@H]2C[C@H](C(=O)N3CCCN(C4CCC4)CC3)C2)cc1 [Example 106, 4-({trans-3-[(4-cyclobutyl-1,4-diazepan-1-yl)carbonyl]cyclobutyl}oxy)benzonitrile]",> 7.00
10,"O=C([C@H]1C[C@H](Oc2ccc(C(F)(F)F)cn2)C1)N1CCCN(C2CCC2)CC1 [Example 107, 1-cyclobutyl-4-[(trans-3-{[5-(trifluoromethyl)pyridin-2-yl]oxy}cyclobutyl)carbonyl]-1,4-diazepane]",> 7.00
11,"O=C1CN(C(=O)N2CCCN(C3CCC3)CC2)C1 [Example 108, 1-[(4-cyclobutyl-1,4-diazepan-1-yl)carbonyl]azetidin-3-one]",> 7.00
12,"NC1CN(C(=O)N2CCCN(C3CCC3)CC2)C1 [Example 109, 1-[(4-cyclobutyl-1,4-diazepan-1-yl)carbonyl]azetidin-3-amine]",> 7.00
13,"N#Cc1ccc(CNC2CN(C(=O)N3CCCN(C4CCC4)CC3)C2)cc1 [Example 112, 4-[({1-[(4-cyclobutyl-1,4-diazepan-1-yl)carbonyl]azetidin-3-yl}amino)methyl]benzonitrile]",> 7.00
14,"O=C(Nc1ccc(Cl)cc1)C1CN(C(=O)N2CCCN(C3CCC3)CC2)C1 [Example 123, N-(4-chlorophenyl)-1-[(4-cyclobutyl-1,4-diazepan-1-yl)carbonyl]azetidine-3-carboxamide]",> 7.00
15,"O=C(C1CN(C(=O)N2CCCN(C3CCC3)CC2)C1)N1CCCCC1 [Example 124, 1-cyclobutyl-4-{[3-(piperidin-1-ylcarbonyl)azetidin-1-yl]carbonyl}-1,4-diazepane]",> 7.00
16,"O=C(C1CN(C(=O)N2CCCN(C3CCC3)CC2)C1)N1CCOCC1 [Example 125, 1-cyclobutyl-4-{[3-(morpholin-4-ylcarbonyl)azetidin-1-yl]carbonyl}-1,4-diazepane]",> 7.00
17,"O=C(C1CN(C(=O)N2CCCN(C3CCC3)CC2)C1)N1CCC1 [Example 126, 1-{[3-(azetidin-1-ylcarbonyl)azetidin-1-yl]carbonyl}-4-cyclobutyl-1,4-diazepane]",> 7.00
18,"O=C(C1CN(C(=O)N2CCCN(C3CCC3)CC2)C1)N1CCCC1 [Example 127, 1-cyclobutyl-4-{[3-(pyrrolidin-1-ylcarbonyl)azetidin-1-yl]carbonyl}-1,4-diazepane]",> 7.00
19,"O=C(C1CN(C(=O)N2CCCN(C3CCC3)CC2)C1)N1CCCCCC1 [Example 128, 1-{[3-(azepan-1-ylcarbonyl)azetidin-1-yl]carbonyl}-4-cyclobutyl-1,4-diazepane]",> 7.00
20,"O=C(C1CN(C(=O)N2CCCN(C3CCC3)CC2)C1)N1CCC(F)CC1 [Example 129, 1-cyclobutyl-4-({3-[(4-fluoropiperidin-1-yl)carbonyl]azetidin-1-yl}carbonyl)-1,4-diazepane]",> 7.00
21,"O=C(C1CN(C(=O)N2CCCN(C3CCC3)CC2)C1)N1CCC(F)(F)CC1 [Example 130, 1-cyclobutyl-4-({3-[(4,4-difluoropiperidin-1-yl)carbonyl]azetidin-1-yl}carbonyl)-1,4-diazepane]",> 7.00
22,"O=C(NC1CCCCC1)C1CN(C(=O)N2CCCN(C3CCC3)CC2)C1 [Example 131, 1-[(4-cyclobutyl-1,4-diazepan-1-yl)carbonyl]-N-cyclohexylazetidine-3-carboxamide]",> 7.00
23,"O=C(N1CCCN(C2CCC2)CC1)N1CC(CO)C1 [Example 134, {1-[(4-cyclobutyl-1,4-diazepan-1-yl)carbonyl]azetidin-3-yl}methanol]",> 7.00
24,"O=C1NCCc2cc(OCC3CN(C(=O)N4CCCN(C5CCC5)CC4)C3)ccc21 [Example 136, 6-({1-[(4-cyclobutyl-1,4-diazepan-1-yl)carbonyl]azetidin-3-yl}methoxy)-3,4-dihydroisoquinolin-1(2H)-one]",> 7.00

# Results, then the compound that gave them:
row,pIC50,Compound
1,> 7.00,"COC1CN(C(=O)N2CCCN(C3CCC3)CC2)C1 [Example 96, 1-cyclobutyl-4-[(3-methoxyazetidin-1-yl)carbonyl]-1,4-diazepane]"
2,> 7.00,"O=C(N1CCCN(C2CCC2)CC1)N1CC(OCc2ccc(Cl)cc2)C1 [Example 97, 1-({3-[(4-chlorobenzyl)oxy]azetidin-1-yl}carbonyl)-4-cyclobutyl-1,4-diazepane]"
3,> 7.00,"CNC(=O)c1ccc(NC2CN(C(=O)N3CCCN(C4CCC4)CC3)C2)cn1 [Example 110, 5-({1-[(4-cyclobutyl-1,4-diazepan-1-yl)carbonyl]azetidin-3-yl}amino)-N-methylpyridine-2-carboxamide]"
4,> 7.00,"CNC(=O)c1ccc(N(C)C2CN(C(=O)N3CCCN(C4CCC4)CC3)C2)cn1 [Example 111, 5-[{1-[(4-cyclobutyl-1,4-diazepan-1-yl)carbonyl]azetidin-3-yl}(methyl)amino]-N-methylpyridine-2-carboxamide]"
5,5.30 to 6.30,"CNC(=O)c1ccc(OC2CN(C(=O)N3CCCN(C)CC3)C2)cn1 [Example 113, 5-({1-[(4-methyl-1,4-diazepan-1-yl)carbonyl]azetidin-3-yl}oxy)-N-methylpyridine-2-carboxamide]"
6,> 7.00,"CNC(=O)c1ccc(OC2CN(C(=O)N3CCCN(C(C)C)CC3)C2)cn1 [Example 114, 5-({1-[(4-(1-methylethyl)-1,4-diazepan-1-yl)carbonyl]azetidin-3-yl}oxy)-N-methylpyridine-2-carboxamide]"
7,> 7.00,"CNC(=O)c1ccc(OC2CN(C(=O)N3CCCN(C4CCCC4)CC3)C2)cn1 [Example 115, 5-({1-[(4-cyclopentyl-1,4-diazepan-1-yl)carbonyl]azetidin-3-yl}oxy)-N-methylpyridine-2-carboxamide]"
8,> 7.00,"O=C1NCCc2cc(OC3CN(C(=O)N4CCCN(C5CCC5)CC4)C3)ccc21 [Example 116, 6-({1-[(4-cyclobutyl-1,4-diazepan-1-yl)carbonyl]azetidin-3-yl}oxy)-3,4-dihydroisoquinolin-1(2H)-one]"
9,> 7.00,"CN1CCc2cc(OC3CN(C(=O)N4CCCN(C5CCC5)CC4)C3)ccc2C1=O [Example 117, 6-({1-[(4-cyclobutyl-1,4-diazepan-1-yl)carbonyl]azetidin-3-yl}oxy)-2-methyl-3,4-dihydroisoquinolin-1(2H)-one]"
10,> 7.00,"CC(C)(O)c1ccc(OC2CN(C(=O)N3CCCN(C4CCC4)CC3)C2)cn1 [Example 118, 2-[5-({1-[(4-cyclobutyl-1,4-diazepan-1-yl)carbonyl]azetidin-3-yl}oxy)pyridin-2-yl]propan-2-ol]"
11,> 7.00,"CC(=O)c1ccc(OC2CN(C(=O)N3CCCN(C4CCC4)CC3)C2)cn1 [Example 119, 1-[5-({1-[(4-cyclobutyl-1,4-diazepan-1-yl)carbonyl]azetidin-3-yl}oxy)pyridin-2-yl]ethanone]"
12,> 7.00,"COc1cnc(OC2CN(C(=O)N3CCCN(C4CCC4)CC3)C2)nc1 [Example 120, 1-cyclobutyl-4-({3-[(5-methoxypyrimidin-2-yl)oxy]azetidin-1-yl}carbonyl)-1,4-diazepane]"
13,> 7.00,"Cc1ccc(OC2CN(C(=O)N3CCCN(C4CCC4)CC3)C2)cn1 [Example 121, 1-cyclobutyl-4-({3-[(6-methylpyridin-3-yl)oxy]azetidin-1-yl}carbonyl)-1,4-diazepane]"
14,> 7.00,"COC(=O)C1CN(C(=O)N2CCCN(C3CCC3)CC2)C1 [Example 122, methyl 1-[(4-cyclobutyl-1,4-diazepan-1-yl)carbonyl]azetidine-3-carboxylate]"
15,> 7.00,"Cc1ccc(NC(=O)C2CN(C(=O)N3CCCN(C4CCC4)CC3)C2)cn1 [Example 132, 1-[(4-cyclobutyl-1,4-diazepan-1-yl)carbonyl]-N-(6-methylpyridin-3-yl)azetidine-3-carboxamide]"
16,6.30 to 7.00,"CNC(=O)C1CN(C(=O)N2CCCN(C3CCC3)CC2)C1 [Example 133, 1-[(4-cyclobutyl-1,4-diazepan-1-yl)carbonyl]-N-methylazetidine-3-carboxamide]"
17,> 7.00,"O=C(N1CCCN(C2CCC2)CC1)N1CC(COc2ccc(Cl)cc2)C1 [Example 135, 1-({3-[(4-chlorophenoxy)methyl]azetidin-1-yl}carbonyl)-4-cyclobutyl-1,4-diazepane]"
